Results as given in patent US5981219A, “DNA molecules which code for a plastid 2-oxoglutarate/malate translocator” (Hoechst Schering Agrevo GmbH, priority 1919, dated 1999).

Assays:
[1] = target: T1, 2-oxoglutarate/malate translocator, envelope membrane of spinach chloroplasts (Spinacia oleracea, UniProt Q41364); test: Reconstituted malate transport activity, envelope membrane proteins of spinach chloroplasts in liposomes; assay type: biochemical; conditions: for transport activity, percentage of activity measured with malate-preloaded liposomes: envelope membrane of spinach chloroplasts, liposomes preloaded with the indicated dicarboxylate, standard deviation in brackets
T1 construct: it is cleaved during the import process by a specific protease; the mature protein (m) is formed; from tissue; host or cells: spinach chloroplast envelope membranes
T1 sequence (Q41364 94-569): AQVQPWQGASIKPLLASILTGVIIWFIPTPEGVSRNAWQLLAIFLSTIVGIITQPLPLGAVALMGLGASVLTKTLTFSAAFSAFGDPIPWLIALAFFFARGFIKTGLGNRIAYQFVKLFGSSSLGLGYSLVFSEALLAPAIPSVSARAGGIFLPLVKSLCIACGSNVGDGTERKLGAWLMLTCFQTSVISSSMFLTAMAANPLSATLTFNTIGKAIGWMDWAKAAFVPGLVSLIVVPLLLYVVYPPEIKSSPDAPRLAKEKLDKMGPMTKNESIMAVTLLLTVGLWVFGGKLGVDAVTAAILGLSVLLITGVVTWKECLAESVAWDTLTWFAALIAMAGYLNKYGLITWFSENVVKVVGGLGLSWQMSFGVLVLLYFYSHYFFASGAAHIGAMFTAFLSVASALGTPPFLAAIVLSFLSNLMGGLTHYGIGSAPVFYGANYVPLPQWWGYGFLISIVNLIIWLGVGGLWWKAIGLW
Description: (§1) Yeast cells transformed with pEVP11-211 plasmid (see FIG. 2A, SP-DC3 cells) were grown in minimum essential medium up to an optical density of 1.0 at 600 nm and harvested by centrifugation at 3,000×g for 5 minutes. The cells were disrupted by vigorously shaking the mixture with 1/2 vol. (based on the cells) glass beads and glass beads and cell debris were separated by centrifugation (600 g for 1 minute). The supernatant was adjusted to a concentration of 0.5% (weight/volume) Triton X-100, an equal volume of liposomes was added to the mixture and the resulting proteoliposomes were immediately frozen in liquid nitrogen. The liposomes were previously prepared by sonification of soy bean phospholipid (20 mg/ml for 10 minutes at 4° C. in the presence of 200 mM tricine NaOH (pH 7.6), 40 mM malate and 60 mM potassium gluconate. After thawing of the proteoliposomes and sonification of the suspension with 10 pulses a 1 s the proteoliposomes were separated from the surrounding medium by size exclusion chromatography on Sephadex G-25 which had been equilibrated with 10 mM tricine NaOH (pH 7.6), 100 mM sodium gluconate and 50 mM potassium gluconate. The eluted proteoliposomes were used for measuring malate transport activity. The measurement was carried out according to the "inhibitor stop" method described by Menzlaff and Flugge (1993, Biochim. Biophys. Acta 1147:13-18).
Whole yeast protein, envelope membrane proteins and the purified
2oxyoglutarate/malate translocator were reconstituted in liposomes which
were preloaded with the indicated dicarboxylates. The transport activitie
were measured as described by Menzlaff and Flugge (Biochim. Biophys. Acta
1993, 1147: 13-18) and are indicated in the percentage of activity
measured with malatepreloaded liposomes. The standard deviations are
indicated in brackets. The 100% transport activities (nMol/mg # protein
per minute) were 0.8 (recombinant protein), 21.4 (envelope membranes) and
263 (purified translocator protein).

[2] = test system: purified 2-oxoglutarate/malate translocator protein; conditions: cited from earlier work; for transport activity, percentage of activity measured with malate-preloaded liposomes: liposomes preloaded with the indicated dicarboxylate
[3] = target: T2, recombinant 2-oxoglutarate/malate translocator (transformed SP-DC3 cells) (Spinacia oleracea, UniProt Q41364); test: Reconstituted malate transport activity (inhibitor stop method), recombinant protein from transformed SP-DC3 yeast cells in liposomes; assay type: biochemical, spinach (expressed in Schizosaccharomyces pombe); conditions: for transport activity, percentage of activity measured with malate-preloaded liposomes: recombinant protein (transformed SP-DC3 cells), liposomes preloaded with the indicated dicarboxylate, standard deviation in brackets
T2 construct: made in house; host or cells: Schizosaccharomyces pombe (SP-DC3 cells, plasmid pEVP11-211)
T2 sequence (Q41364 94-569): T1 sequence (Q41364 94-569)
Description: as §1
The malate transport activity in the pEVP11-211 transformants was compared with the malate transport activity of transformants that were merely transformed with the vector pEVP11 without the 211 insert.

[4] = test system: protein import into intact spinach chloroplasts; test: Import of in vitro translated translocator precursor protein into intact spinach chloroplasts (SDS-PAGE, fluorography); conditions: light conditions, 10 μM CCCP (lane 8, FIG. 3)
Description: FIG. 3: Targeting of the 2-oxoglutarate/malate translocator precursor protein to the chloroplasts and energy-dependent insertion of the mature protein in the inner envelope membrane
SDS polyacrylamide gel electrophoresis was carried out as described in Example 6:
Lane 8: plus decoupling agent (10 μM CCCP) Lane 9: plus 2 mM ATP; protease-pretreated chloro-plasts (30 μg/ml)
The in vitro transcription of plasmid pBSC-211 which was linearized with SmaI was carried out using T3 RNA polymerase according to the instructions of the manufacturer (Pharmacia). Subsequent in vitro translation was carried out in the reticulocyte lysate (Boehringer-Mannheim). The post-ribosomal supernatant was used for protein transports in intact spinach chloroplasts. The experiment was carried out in the dark as well as in the light; the preparation contained import buffer (Flugge et al., 1989, EMBO J. 8:39-46), intact spinach chloroplasts (corresponding to 200 […]) and various additives indicated in the legend to FIG. 3 (entire volume: […]). After 15 minutes at 25° C. the chloroplasts were washed and the envelope membranes […] (Flugge et al., 1989, EMBO J. 8:39-46) […]. They were analyzed in a SDS polyacrylamide gel electrophoresis (Laemmli, 1970, Nature 227:680-685) and subsequent fluorography (Bonner and Laskey, 1974, Eur. J. Biochem. 46:84-88) (FIG. 3). […]

O=C(O)/C=C/C(=O)O [Fumarate]
transport activity, percentage of activity measured with malate-preloaded liposomes [1]: 72 (±2) % | transport activity, percentage of activity measured with malate-preloaded liposomes [2]: 65% | transport activity, percentage of activity measured with malate-preloaded liposomes [3]: 119 (±24) %

O=C(O)CCC(=O)C(=O)O [2-Oxoglutarate]
transport activity, percentage of activity measured with malate-preloaded liposomes [1]: 46 (±2) % | transport activity, percentage of activity measured with malate-preloaded liposomes [3]: 44 (±14) %

O=C(O)CC(O)C(=O)O (stereo not drawn) [Malate]
transport activity, percentage of activity measured with malate-preloaded liposomes [1]: 100% | 100% transport activity ([1]; malate-preloaded liposomes, envelope membranes): 21.4 nMol/mg protein per minute | transport activity, percentage of activity measured with malate-preloaded liposomes [2]: 100% | 100% transport activity ([2]; malate-preloaded liposomes): 263 nMol/mg protein per minute | 100% transport activity ([3]; malate-preloaded liposomes, recombinant protein): 0.8 nMol/mg protein per minute | transport activity, percentage of activity measured with malate-preloaded liposomes [3]: 100%

N[C@@H](CCC(=O)O)C(=O)O [Glutamate]
transport activity, percentage of activity measured with malate-preloaded liposomes [1]: 6 (±1) % | transport activity, percentage of activity measured with malate-preloaded liposomes [3]: 3 (±1) %

O=C(O)CCCC(=O)O [Glutarate]
transport activity, percentage of activity measured with malate-preloaded liposomes [1]: 52 (±1) % | transport activity, percentage of activity measured with malate-preloaded liposomes [3]: 63 (±14) %

O=C(O)CCC(=O)O [Succinate]
transport activity, percentage of activity measured with malate-preloaded liposomes [1]: 74 (±2) % | transport activity, percentage of activity measured with malate-preloaded liposomes [2]: 63% | transport activity, percentage of activity measured with malate-preloaded liposomes [3]: 83 (±12) %

N#CC(C#N)=NNc1cccc(Cl)c1 [CCCP]
protein import into chloroplasts [4]: the protein import is blocked

N[C@@H](CC(=O)O)C(=O)O [Aspartate]
transport activity, percentage of activity measured with malate-preloaded liposomes [1]: 12 (±1) % | transport activity, percentage of activity measured with malate-preloaded liposomes [3]: 13 (±4) %
